For data set [1], the system named is CL8-1 melanoma. Further details: method as in PMID 18163162, PMID 17404693, PMID 18404426, PMID 18311159, PMID 19201652. The following applies: mice; cited from earlier work.
Data set [2] deals with T1, A2AR (Mus musculus, UniProt Q60613). Also noted: endogenous in cells; host or cells: primary lymphocytes from the spleen of C57/BL6 mice; method as in PMID 24126093. The following applies: compared with xanthine 2; cited from earlier work.
For data set [3], the target named is T1, A2AR. Also noted: endogenous in cells; method as in PMID 24126093. Particulars: compared with xanthine 2; cited from earlier work.
Data set [4] addresses T1, A2AR. As to the kind of experiment: Cytokine release assay: IFN-gamma secretion by anti-CD3 activated splenocytes treated with CGS. The class given is cell-based, C57BL/6 mice. Further details: endogenous in cells. The following applies: 0.1 µg/mL anti-CD3, 1 µM CGS plus 1 µM compound, one day, ELISA. The procedure: The second immunoassay assesses secretion of the cytokine IFN-gamma, since it is considered to be sensitive to the A2AR signaling pathway. In these assays, during T cell receptor (TCR) activation by the CD3 ligand, C57BL/6 mice splenocytes T cells are incubated with A2AR agonist CGS to inhibit IFN-gamma secretion resulting from A2AR-induced immunosuppression via intracellular cAMP. Effective A2AR antagonists block the A2AR-activated signal, thus restoring secretion of the cytokine to potentiate and prolong the immune response.
Figure 6 The IFN-gamma production by splenocytes after activation with 0.1 µg/mL anti-CD3 and when treated with vehicle, 1 µM CGS, and 1 µM CGS plus 1 µM compounds 29, 2 (KW-6002), 3 (KW-PEG), and 4 (preladenant) separately is shown. The IFN-gamma levels were determined in the supernatant one day following stimulation using quantitative ELISA and are expressed as pg/mL. Data shown represent mean ± SEM of triplicate samples.
(§1) Measuring functionality of A2AR antagonism by cAMP assay
Stimulation of intracellular cAMP production and measurement of cAMP levels were performed as described previously.[18b] […] Levels of cAMP were determined by ELISA (Amersham Biosciences, Buckinghamshire, UK). […]

On the set-up of data set [5]: method as in PMID 24164628, PMID 25311639, PMID 25174927. Particulars: Parkinson's disease; cited from earlier work.
For data set [6], the target named is T2, A2ARs (Mus musculus, UniProt Q60613).
T2 construct: from tissue; host or cells: whole animal, female C57BL/6 mice (in vivo)
As to the kind of experiment: Concanavalin A (ConA)-induced liver damage assay. The format is in vivo. The following applies: female C57BL/6 mice, 2 mg kg^-1 compound then Con A 20 mg kg^-1, evaluated at 8 h. The procedure:
To select lead compounds for immunotherapy application, an in vivo Concanavalin A (ConA)-induced liver damage assay was carried out in C57BL/6 mice through the pharmacological activation and deactivation of A2ARs. A variety of compounds were screened including 2, 3, and 4 [10, 18, 19]. […] Fluorinated analogs were envisioned to potentially serve as leads to ultimately be labeled at the distal position with fluorine-18 (t1/2 = 109.8 min), for diagnostic imaging with positron emission tomography (PET). A series of fluorinated PEG groups with increasing chain lengths were proposed for chemical modification to map the structure-activity relationship (SAR). Such modifications increase both hydrophilicity and molecular weight (MW), potentially to reduce blood-brain barrier (BBB) penetration as predicted by the central nervous system multiparameter optimization (MPO) score reported by Wager et al..
Figure 2 ConA-induced liver damage in C57BL/6 mice via CGS (6), 2, 3 and 4. Female C57BL/6 mice (n = 5) were first injected with A2AR agonist CGS (6, 2 mg kg^−1), 2 mg kg^−1 2, 3, and 4 separately, and then Con A (20 mg kg^−1). Con A-induced liver damage evaluated at 8 h.

Data set [7] addresses T1, A2AR. As to the kind of experiment: Inhibition of A2AR-induced (CGS21680) intracellular cAMP accumulation in lymphocytes. The class given is cell-based, C57/BL6 mice. Also noted: endogenous in cells; host or cells: primary lymphocytes from the spleen of C57/BL6 mice. The following applies: 1 µM CGS plus 1 μM compound, 15 min, cAMP ELISA. The procedure: Bioassay of compounds 27–31 and 40 and their parent compounds (4 and 5a) was conducted using two functional assays that evaluate A2AR binding-dependent signaling through A2AR on the surface of T cells. The first assay screens compounds on the basis of their extent of inhibition of A2AR-induced intracellular cAMP accumulation in A2AR expressing lymphocytes. The A2AR agonist, CGS21680 (CGS, 6), was used to activate A2AR.
Figure 4 Intracellular cAMP levels in lymphocytes after incubation with vehicle, 1 µM CGS, and 1 µM CGS plus 1 μM of compounds 4 (preladenant), 27–31, 5a (tozadenant), 40, 2 (KW-6002), and 3 (KW-PEG) are shown. The intracellular cAMP levels were determined 15 min following stimulation using quantitative cAMP ELISA and are expressed as fmol/10^6 cells. Data shown represent mean ± SEM of triplicate samples.
as §1
Stimulation of intracellular cAMP production and measurement of cAMP levels were performed as described previously.[18b] Lymphocytes were isolated from the spleen of C57/BL6 mice and suspended at a concentration of 400,000 cells/well, and then treated with 1 µM CGS 21680 6 (A2AR-specific agonist; from Tocris, Ellisville, MO) with or without KW-6002 2, KW-PEG 3, preladenant 4, tozadenant 5a and their PEGylated analogs 27-31 and 40 (at a concentration of […]). The cells were incubated for 15 min at 37 °C , and the reaction was stopped by addition of 1 N hydrochloric acid. Levels of cAMP were determined by ELISA (Amersham Biosciences, Buckinghamshire, UK). All treatment groups were performed in triplicate. […]

Data set [8] can be described thus: Aqueous pH 7.4 solubility. The format is physicochemical. Particulars: aqueous buffer, thermodynamic from solid; 0.1 M phosphate buffer pH 7.4, 25°C, 20-24 hours. The procedure: (§2) Determination of Physicochemical Properties
(§3) Aqueous pH 7.4 Solubility
(§4) Compounds were dried down from 10 mM DMSO solutions using centrifugal evaporation techniques. Phosphate buffer (0.1 M pH 7.4) was added and StirStix inserted in the glass vials.
Agitation was then performed at a constant temperature of 25°C for 20 -24 hours. The vials were then subjected to double centrifugation (with a tip wash in between) to eliminate any residues of the dried compound. The solutions were then diluted and quantitated using LC/MS/MS. […]

Data set [9] is described as follows: Intrinsic clearance in human liver microsomes. The class given is in vitro ADME. The following applies: read-out: HLM CLint. The procedure: (§5) buffer (pH 7.4 phosphate buffer) was measured by LC-MS/MS after equilibration at 37°C in a dialysis chamber. The fraction unbound (fu) is reported.
(§6) In vitro intrinsic clearance was determined from human liver microsomes or rat hepatocytes using standard methods. Following incubation and preparation, the samples were analyzed using […]
(§7) µl/min/mg or µl/min/1 million cells.

Data set [10] can be described thus: Log D7.4 shake-flask octanol-water. The format is physicochemical. Particulars: octanol / 10 mM sodium phosphate pH 7.4, read-out: logD7.4. The procedure: Determination of Physicochemical Properties […]
A shake-flask method was employed to determine octanol-water distribution coefficients at pH
7.4 (Log D7.4). The aqueous solution used was 10 mM sodium phosphate pH 7.4 buffer. The
method was validated for Log D7.4 ranging from -2 to 5.0. […]

Data set [11] in a line: Human plasma protein binding (equilibrium dialysis, RED device). The class given is in vitro ADME. The following applies: pH 7.4, 10 µM initial concentration, 37°C, read-out: Human PPB (converted). The procedure: Figure S1. Docking results of compounds 27-29 via Glide XP method. The H-bond interaction is represented as a pink arrow, pi-pi stacking as a green arrow. (A) Compound 27 docking pattern. (B) Compound 28 docking pose. (C) Compound 29 docking result. Pictures are rendered […]
as §2, §3, §4
Agitation was then performed at a constant temperature of 25°C for 20 -24 hours. The vials were then subjected to double centrifugation (with a tip wash in between) to eliminate any residues of the dried compound. The solutions were then diluted and quantitated using LC/MS/MS.
A shake-flask method was employed to determine octanol-water distribution coefficients at pH 7.4 (Log D7.4). The aqueous solution used was 10 mM sodium phosphate pH 7.4 buffer. The method was validated for Log D7.4 ranging from -2 to 5.0.
Human Plasma Protein Binding (PPB)
PPB was determined using equilibrium dialysis (RED device) to separate free from bound compound. The amount of compound in plasma (10 µM initial concentration) and in dialysis […]
as §5, §6, §7

A short description of data set [12]: Intrinsic clearance in rat hepatocytes. The class given is in vitro ADME. The procedure: as §5, §6, §7

Results on ten molecules are retold here after PMC5671725, “Fluorinated Adenosine A2A Receptor Antagonists Inspired by Preladenant as Potential Cancer Immunotherapeutics” (International Journal of Medicinal Chemistry, 2017).

Values after ≈ are worked out from the molar mass of the structure shown.

T1 sequence (Q60613 whole entry): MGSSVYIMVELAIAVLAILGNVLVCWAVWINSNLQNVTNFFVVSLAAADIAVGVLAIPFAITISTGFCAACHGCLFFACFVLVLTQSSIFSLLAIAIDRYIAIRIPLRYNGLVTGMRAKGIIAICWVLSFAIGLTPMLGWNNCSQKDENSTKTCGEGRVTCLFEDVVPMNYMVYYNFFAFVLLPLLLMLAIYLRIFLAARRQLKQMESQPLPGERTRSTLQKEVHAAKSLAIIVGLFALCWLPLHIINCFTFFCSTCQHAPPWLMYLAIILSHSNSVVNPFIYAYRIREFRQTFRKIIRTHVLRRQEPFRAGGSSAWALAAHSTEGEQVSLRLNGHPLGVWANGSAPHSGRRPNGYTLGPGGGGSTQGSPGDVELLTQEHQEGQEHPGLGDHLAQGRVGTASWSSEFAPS
T2 sequence (Q60613 whole entry): as above

Consider `Nc1nc(NCCc2ccc(O)cc2)nc2nc(-c3ccco3)nn12` [Compound 1, ZM241385], for which, in [1], the “Growth of CL8-1 melanoma” value is “delayed growth of CL8-1 melanoma in mice” and the “Levels of endogenous antitumor T cells” value was “increased levels of endogenous antitumor T cells”.
As for `CCn1c(=O)c2c(nc(/C=C/c3ccc(C(=O)OCCOCCOCCOCCOCCOCCOCCOCCOC)c(OC)c3)n2C)n(CC)c1=O` [Compound 3], the cAMP suppression result in data set [2] is “enhanced properties”. Further, the “Cytokine IFN-gamma restoration” value in data set [3] was “enhanced properties”.
For `COCCOc1ccc(N2CCN(CCn3ncc4c3nc(N)n3nc(-c5ccco5)nc43)CC2)cc1` [Compound 4, preladenant], the “Restoration of IFN-gamma secretion” value in data set [4] is “superior restoration of IFN-gamma secretion compared to either 2 or 3”. The “Efficacy in Phase III trials” value in data set [5] is recorded as “failed to show efficacy”. Also, in data set [6], the ConA-induced liver damage result is recorded as “most severe immune induced liver damage”.
For `COc1ccc(N2CCOCC2)c2sc(NC(=O)N3CCC(C)(O)CC3)nc12` [Compound 5a, tozadenant, reference compound], the “Antagonism of CGS-mediated intracellular cAMP accumulation” value (shortened to “Antagonism”) in data set [7] is “inferior antagonism to that of compounds 2 and 3”.
In turn, `Nc1nc2c(cnn2CCN2CCN(c3ccc(OCCF)cc3)CC2)c2nc(-c3ccco3)nn12` [Compound 27] had a solubility in data set [8] of 74 µM (≈ 36.4 µg/mL). For the same molecule, the microsomal CLint in data set [9] turned out to be 16.5 µL/min/mg. Also, the logD in data set [10] turned out to be 2.8. Further, the fraction unbound at 10 µM in [11] was 0.01. Besides, the “Rat hepatocyte CLint” value in data set [12] was determined as 29.9 μL/min/10^6.
For `Nc1nc2c(cnn2CCN2CCN(c3ccc(OCCOCCF)cc3)CC2)c2nc(-c3ccco3)nn12` [Compound 28], in that order: 2 µM (≈ 1.07 µg/mL), 71.9 µL/min/mg, 2.5, 0.013 and 12.8 μL/min/10^6.
For the molecule `Nc1nc2c(cnn2CCN2CCN(c3ccc(OCCOCCOCCF)cc3)CC2)c2nc(-c3ccco3)nn12` [Compound 29], the solubility in [8] stood at 10 µM (≈ 5.8 µg/mL). Also, the “Restoration of IFN-gamma secretion” value in data set [4] is given as “superior restoration of IFN-gamma secretion compared to either 2 or 3”. Also, the microsomal CLint in data set [9] was 66.1 µL/min/mg. Further, the logD in [10] came to 2.3. Also, in data set [11], the fraction unbound at 10 µM was 0.017. The “Rat hepatocyte CLint” value in data set [12] is 72.9 μL/min/10^6.
For the molecule `Nc1nc2c(cnn2CCN2CCN(c3ccc(OCCOCCOCCOCCOCCOCCF)cc3)CC2)c2nc(-c3ccco3)nn12` [Compound 30], in data set [7], the “Antagonism” value was “decreased antagonism”.
In the case of `COCCOCCOCCOCCOCCOCCOCCOCCOc1ccc(N2CCN(CCn3ncc4c3nc(N)n3nc(-c5ccco5)nc43)CC2)cc1` [Compound 31], the “Antagonism” value in [7] is reported as “decreased antagonism”.
The same measure, in the same setting: next, `COCCOCCOCCOCCOCCOCCOCCOCCOc1ccc(N2CCN(C(=O)Nc3nc4c(OC)ccc(N5CCOCC5)c4s3)CC2)cc1` [Compound 40]: “no suppression of intracellular cAMP accumulation”.
